Reference: PubChem BioAssay (NCI)
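Grown in 96-well plates, cells were treated for 48 hours with each compound at five concentrations. Insufficient inhibition: endpoint recorded as highest concentration tested. GI50 is the concentration that inhibits growth by half. TGI marks complete inhibition of growth.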

Legend:
Assay in all cases: growth of human tumour cells (NCI), 48 h
T-47D breast = system: T-47D breast
RPMI-8226 leukemia = system: RPMI-8226 leukemia
SK-MEL-5 melanoma = system: SK-MEL-5 melanoma
LOX IMVI melanoma = system: LOX IMVI melanoma
TK-10 renal = system: TK-10 renal
COLO 205 colon = system: COLO 205 colon
MDA-MB-435 = system: MDA-MB-435
NCI-H226 lung = system: NCI-H226 lung
MCF7 breast = system: MCF7 breast
U251 CNS = system: U251 CNS
RXF 393 renal = system: RXF 393 renal
SF-539 CNS = system: SF-539 CNS
A549 NSCLC = system: A549 NSCLC
EKVX NSCLC = system: EKVX NSCLC
SF-295 CNS = system: SF-295 CNS
SK-MEL-2 melanoma = system: SK-MEL-2 melanoma
HCT-116 colon = system: HCT-116 colon
CAKI-1 renal = system: CAKI-1 renal
HOP-62 NSCLC = system: HOP-62 NSCLC
DU-145 prostate = system: DU-145 prostate
HCT-15 colon = system: HCT-15 colon
OVCAR-3 ovarian = system: OVCAR-3 ovarian
BT-549 breast = system: BT-549 breast
HT29 colon = system: HT29 colon
NCI-H522 lung = system: NCI-H522 lung
MOLT-4 leukemia = system: MOLT-4 leukemia
MDA-MB-231 breast = system: MDA-MB-231 breast
SK-OV-3 ovarian = system: SK-OV-3 ovarian
HOP-92 NSCLC = system: HOP-92 NSCLC
UACC-62 melanoma = system: UACC-62 melanoma
HS 578T breast = system: HS 578T breast
OVCAR-4 ovarian = system: OVCAR-4 ovarian
CCRF-CEM leukemia = system: CCRF-CEM leukemia
HL-60(TB) leukemia = system: HL-60(TB) leukemia
SK-MEL-28 melanoma = system: SK-MEL-28 melanoma
UO-31 renal = system: UO-31 renal
SN12C renal = system: SN12C renal
786-0 renal = system: 786-0 renal
ACHN renal = system: ACHN renal
KM12 colon = system: KM12 colon
SF-268 CNS = system: SF-268 CNS
OVCAR-5 ovarian = system: OVCAR-5 ovarian
M14 melanoma = system: M14 melanoma
SW-620 colon = system: SW-620 colon
A498 renal = system: A498 renal
IGROV1 ovarian = system: IGROV1 ovarian
NCI-H460 lung = system: NCI-H460 lung
NCI-H23 lung = system: NCI-H23 lung
SNB-19 CNS = system: SNB-19 CNS
PC-3 prostate = system: PC-3 prostate
MALME-3M melanoma = system: MALME-3M melanoma
OVCAR-8 ovarian = system: OVCAR-8 ovarian
NCI/ADR-RES ovarian = system: NCI/ADR-RES ovarian
UACC-257 melanoma = system: UACC-257 melanoma

COc1cc2c(/C=C3/C(=O)Nc4ccccc43)c(Cl)n(Cc3ccccc3[N+](=O)[O-])c2cc1C was tested, and the GI50 (T-47D breast) was 4.11 µM, the TGI (T-47D breast) was 21.8 µM and the GI50 (RPMI-8226 leukemia) was 3.49 µM. The TGI (RPMI-8226 leukemia) was > 100 µM, the GI50 (SK-MEL-5 melanoma) was 5.02 µM and the TGI (SK-MEL-5 melanoma) was 19.6 µM. The GI50 (LOX IMVI melanoma) was 9.17 µM, the TGI (LOX IMVI melanoma) was 24 µM and the GI50 (TK-10 renal) was 12.4 µM. The TGI (TK-10 renal) was 34.1 µM, the GI50 (COLO 205 colon) was 3.18 µM and the TGI (COLO 205 colon) was 15.5 µM. For the same molecule, the GI50 (MDA-MB-435) was 3.39 µM, the TGI (MDA-MB-435) was 15.6 µM and the GI50 (NCI-H226 lung) was 12.7 µM. The TGI (NCI-H226 lung) was 38.4 µM, the GI50 (MCF7 breast) was 5.46 µM and the TGI (MCF7 breast) was > 100 µM. The GI50 (U251 CNS) was 11.2 µM, the TGI (U251 CNS) was 25.1 µM and the GI50 (RXF 393 renal) was 18.9 µM. It also gave a TGI (RXF 393 renal) of 96.2 µM, a GI50 (SF-539 CNS) of 14.3 µM and a TGI (SF-539 CNS) of 40.4 µM. For the same molecule, the GI50 (A549 NSCLC) was 7.8 µM, the TGI (A549 NSCLC) was > 100 µM and the GI50 (EKVX NSCLC) was 5.66 µM. The TGI (EKVX NSCLC) was 29.5 µM, the GI50 (SF-295 CNS) was 6.9 µM and the TGI (SF-295 CNS) was 22.8 µM. It also gave a GI50 (SK-MEL-2 melanoma) of 12.9 µM, a TGI (SK-MEL-2 melanoma) of 40.5 µM and a GI50 (HCT-116 colon) of 2.71 µM. For the same molecule, the TGI (HCT-116 colon) was 18.6 µM, the GI50 (CAKI-1 renal) was 6.39 µM and the TGI (CAKI-1 renal) was 23.3 µM. The GI50 (HOP-62 NSCLC) was 10.7 µM, the TGI (HOP-62 NSCLC) was 27.6 µM and the GI50 (DU-145 prostate) was 6.74 µM. The TGI (DU-145 prostate) was > 100 µM, the GI50 (HCT-15 colon) was 6.6 µM and the TGI (HCT-15 colon) was 26.7 µM. It also gave a GI50 (OVCAR-3 ovarian) of 3.02 µM, a TGI (OVCAR-3 ovarian) of 15 µM and a GI50 (BT-549 breast) of 9.16 µM. It also gave a TGI (BT-549 breast) of 27.8 µM, a GI50 (HT29 colon) of 1.93 µM and a TGI (HT29 colon) of 24.4 µM. For the same molecule, the GI50 (NCI-H522 lung) was 12.2 µM, the TGI (NCI-H522 lung) was 35.3 µM and the GI50 (MOLT-4 leukemia) was 5.51 µM. For the same molecule, the TGI (MOLT-4 leukemia) was 70.3 µM, the GI50 (MDA-MB-231 breast) was 3.85 µM and the TGI (MDA-MB-231 breast) was 31.3 µM. It also gave a GI50 (SK-OV-3 ovarian) of 14.8 µM, a TGI (SK-OV-3 ovarian) of 32.5 µM and a GI50 (HOP-92 NSCLC) of 7.25 µM. For the same molecule, the TGI (HOP-92 NSCLC) was 26.8 µM, the GI50 (UACC-62 melanoma) was 6.69 µM and the TGI (UACC-62 melanoma) was 27 µM. It also gave a GI50 (HS 578T breast) of 15 µM, a TGI (HS 578T breast) of 94 µM and a GI50 (OVCAR-4 ovarian) of 4.18 µM. For the same molecule, the TGI (OVCAR-4 ovarian) was 22.2 µM, the GI50 (CCRF-CEM leukemia) was 5.62 µM and the TGI (CCRF-CEM leukemia) was > 100 µM. The GI50 (HL-60(TB) leukemia) was 4.78 µM, the TGI (HL-60(TB) leukemia) was > 100 µM and the GI50 (SK-MEL-28 melanoma) was 3.47 µM. For the same molecule, the TGI (SK-MEL-28 melanoma) was 12.4 µM, the GI50 (UO-31 renal) was 6.29 µM and the TGI (UO-31 renal) was 25.1 µM. It also gave a GI50 (SN12C renal) of 9.42 µM, a TGI (SN12C renal) of 56.1 µM and a GI50 (786-0 renal) of 6.31 µM. It also gave a TGI (786-0 renal) of 22.5 µM, a GI50 (ACHN renal) of 4.95 µM and a TGI (ACHN renal) of 19.6 µM. It also gave a GI50 (KM12 colon) of 4.9 µM, a TGI (KM12 colon) of 21.3 µM and a GI50 (SF-268 CNS) of 24 µM. The TGI (SF-268 CNS) was > 100 µM, the GI50 (OVCAR-5 ovarian) was 15.6 µM and the TGI (OVCAR-5 ovarian) was 35.4 µM. The GI50 (M14 melanoma) was 6.35 µM, the TGI (M14 melanoma) was 30.2 µM and the GI50 (SW-620 colon) was 7.91 µM. For the same molecule, the TGI (SW-620 colon) was 34.5 µM, the GI50 (A498 renal) was 12.4 µM and the TGI (A498 renal) was 32.6 µM. For the same molecule, the GI50 (IGROV1 ovarian) was 7.46 µM, the TGI (IGROV1 ovarian) was > 100 µM and the GI50 (NCI-H460 lung) was 5.51 µM. The TGI (NCI-H460 lung) was > 100 µM, the GI50 (NCI-H23 lung) was 7.77 µM and the TGI (NCI-H23 lung) was 22.3 µM. For the same molecule, the GI50 (SNB-19 CNS) was 11.1 µM, the TGI (SNB-19 CNS) was 30.8 µM and the GI50 (PC-3 prostate) was 5.08 µM. The TGI (PC-3 prostate) was 25.6 µM, the GI50 (MALME-3M melanoma) was 3.41 µM and the TGI (MALME-3M melanoma) was 13.8 µM. For the same molecule, the GI50 (OVCAR-8 ovarian) was 26.1 µM, the TGI (OVCAR-8 ovarian) was > 100 µM and the GI50 (NCI/ADR-RES ovarian) was 4.71 µM. It also gave a TGI (NCI/ADR-RES ovarian) of 20.3 µM, a GI50 (UACC-257 melanoma) of 17.7 µM and a TGI (UACC-257 melanoma) of 85.5 µM.
